# In patent publication US20240299486A1, “ADDRESSING INJECTION SITE REACTIONS ASSOCIATED WITH THE ADMINISTRATION OF ELAMIPRETIDE” (STEALTH BIOTHERAPEUTICS INC., priority 2022, published 2024):
# Columns and labels:
# non-human primates = conditions: long term toxicology studies
# MRGPRX2 receptor = biological target: T1, MRGPRX2 receptor (Homo sapiens, UniProt Q96LB1); test: Fluo-4 calcium assay in MRGPRX2 expressing Chem-1 cells; type: cell-based; conditions: Chem-1 cells, Fluo-4
# T1 construct: host or cells: Chem-1 cells (G418-selected)
# T1 sequence (Q96LB1 1-330): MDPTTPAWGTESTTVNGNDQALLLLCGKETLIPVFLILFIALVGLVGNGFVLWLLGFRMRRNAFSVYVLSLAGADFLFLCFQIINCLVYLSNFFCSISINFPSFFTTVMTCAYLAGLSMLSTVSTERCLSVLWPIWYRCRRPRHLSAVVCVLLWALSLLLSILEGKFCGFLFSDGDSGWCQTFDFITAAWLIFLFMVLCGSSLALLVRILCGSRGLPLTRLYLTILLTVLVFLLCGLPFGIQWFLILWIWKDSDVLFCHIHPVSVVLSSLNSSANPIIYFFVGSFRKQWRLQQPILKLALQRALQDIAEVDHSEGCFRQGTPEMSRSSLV
# [1] = Phase 1 crossover study: pharmacokinetics of elamipretide and metabolites M1, M2; conditions: human, in vivo, 60 mg
# Procedure: • This Phase 1, open-label, 6-arm crossover study included 10 healthy subjects ≥18 and ≤65 years of age. • All subjects received 60 mg of SQ elamipretide to alternating quadrants of the abdomen on each of 6 occasions (FIG. 3), with or without the interventions listed in Table 2. • For each treatment arm, ISR clinical and self-assessments were performed pre-elamipretide administration and at 0.5, 1, 2, 4, 6, 12, 24, and 48 hours after each elamipretide dose. • Blood samples for plasma concentrations of elamipretide and its metabolites were also collected pre-dose and at 0.25, 0.5, 1, 2, 4, and 6 hours post-elamipretide dose. • Primary endpoints consisted of comparisons of the grading from the clinical assessments and the self-assessments of each ISR parameter following administration of elamipretide with each separate intervention versus that of elamipretide alone. • Secondary endpoints consisted of comparison of various pharmacokinetic (PK) parameters and adverse events following administration of elamipretide with each separate intervention versus that of elamipretide alone.
# After the screening period (up to 28 days) in this phase 1, open-label, 4-week, 6-part, crossover study, all eligible subjects received 60 mg (0.75 mL) of SC elamipretide to alternating quadrants of the abdomen on each of 6 occasions, with or without potential ISR interventions. […]
# human MRGPRX2 = human MRGPRX2 (Homo sapiens, UniProt Q96LB1); test: cell-based
# Procedure: A clonal HEK293 cell line stably expressing human MRGPRX2 and Galpha15 was used for the assay, which was performed using a fluorescent plate reader. Cells were plated at 40,000 cells per well in a glass-bottom 96 well plate 20 hours before the assay. Cells were loaded with N-[4-[6-[(Acetyloxy)methoxy]-2,7-difluoro-3-oxo-3H-xanthen-9-yl]-2-[2-[2-[bis[2-[(acetyloxy)methoxy]-2-oxoethyl]amino]-5-methylphenoxy]ethoxy]phenyl]-N-[2-[(acetyloxy)methoxy]-2-oxoethyl]glycine (acetyloxy)methyl ester (Fluo-4 AM) for 45 minutes at 37° C. and allowed to rest for 30 minutes before use. Baseline fluorescence was calculated as the average of a 30 second read, with data points taken at 5 second intervals. Response was defined as the maximum signal within 90 seconds after addition of elamipretide, subtracted by the baseline fluorescence signal. Concentrations were tested in duplicate and the assay was run 6 times. The curve was calculated as a four-parameter non-linear fit with variable slope. Traces were obtained using the same cell line and same Fluo-4 AM loading protocol but were imaged using a fluorescence microscope using a standard fluorescein isothiocyanate (FITC) filter. Fluorescence for different cells was calculated using region of interest selections.
# A calcium-based readout of receptor activity was used to determine whether elamipretide activates human MRGPRX2 and its mouse ortholog Mrgprb2. This assay is known to be widely used in drug screening and utilized a cell line stably transfected with the receptor along with Galpha15, a promiscuous G protein that couples to the receptor and induced an increase in intracellular calcium when the receptor was activated. Thus, an increase in calcium levels reflected receptor activation. Calcium levels were detected by imaging Fluo-4 (from Fluo-4 AM), a dye that increases in fluorescence when bound to calcium.
# [2] = tested on: control (non-MRGPRX2 expressing) Chem-1 cells; conditions: parent Chem-1 cells, Fluo-4
# Procedure: MRGPRX2 expressing and control (non-MRGPRX2 expressing) Chem-1 cells lines were obtained from Discovery Services, EuroFins. Cells were cultured in Dulbecco's Modified Eagle Medium (DMEM) high glucose medium (4.5 g/L) with 10% fetal bovine serum (FBS), non-essential amino acids, and N-2-hydroxyethylpiperazine-N′-2-ethanesulfonic acid (HEPES) buffer (pH 7.0-7.6). Geneticin (G418) was used for selection of MRGPRX2-expressing Chem-1 cells. Cells were maintained at 37° C. at 5% CO2. Cells were seeded to a glass bottom 96-well plates at a density of 50,000 per well (Cellvis). Cells were loaded with Fluo-4 AM for 30 minutes at 37° C. at a concentration of 2.5 μM. Cells were washed once with Dulbecco's phosphate buffered saline (DPBS). Cells were rested at room temperature for 30 minutes before use and washed with DPBS. Cells were resuspended in 50 μl phosphate buffered saline (PBS) with calcium and magnesium. […] Plates were read immediately with a Biotek plate reader. Readings were taken every 6 seconds for 2 minutes.
# [3] = tested on: Mouse primary peritoneal mast cells; test: Mast cell activation (Fluo-4 calcium imaging); type: cell-based; conditions: 500 micrograms/mL elamipretide
# Procedure: Mouse primary peritoneal mast cells were isolated from wild type and Mrgprb2 knockout mice. Mast cells were incubated in Dulbecco's Modified Eagle Medium, supplemented with 10% fetal bovine serum and 100 ng/mL human stem cell factor for 2 hours in wells of a glass-bottom 96 well plate that had been previously coated with fibronectin. […] A confocal fluorescence microscope was used to assess changes in free intracellular calcium levels in each mast cell in a visual field, as measured by changes in Fluo-4 fluorescence using a standard FITC filter, reflecting responsiveness to elamipretide. Cells were identified as responding if the Fluo-4 signal rose by at least 50% for at least 10 seconds, which clearly distinguishes a ligand-induced response from random flickering events.
# Injection site reactions induced by several classes of drugs were mediated in mice by Mrgprb2-dependent activation of mast cells. Whether elamipretide activated primary mouse connective tissue mast cells was evaluated, and if so, it was evaluated whether this was Mrgprb2-dependent. […] Briefly, primary connective tissue mast cells were purified from mice, loaded with Fluo-4, and changes in fluorescence after elamipretide exposure were imaged. T fluorescence of over 200 individual mast cells, each from wild type and Mrgprb2 knockout mice, were monitored and the percentage of total cells that responded was determined.
compound,measurement,setting,value
"Cc1cc(O)cc(C)c1C[C@H](NC(=O)[C@H](N)CCCNC(=N)N)C(=O)N[C@@H](CCCCN)C(=O)N[C@@H](Cc1ccccc1)C(N)=O (stereo in doubt) [Elamipretide, H-D-Arg-2′,6′Dmt-Lys-Phe-NH2]",injection site reactions,non-human primates,generally not severe
same,activation of the MRGPRX2 expressing cells (calcium mobilization),MRGPRX2 receptor,dose dependent activation
same,Tmax,[1],30 min
same,EC50,human MRGPRX2,98.5 µM
same,EC50 relative to the typical elamipretide injection concentration of 40 mg/mL (times lower),human MRGPRX2,~600 times
same,Fluo-4 fluorescence after elamipretide exposure,human MRGPRX2; HEK293 cells transfected with MRGPRX2,increased
same,effect on cells lacking the MRGPRX2 receptor (calcium mobilization),[2],no effect
same,intracellular calcium response of mast cells,[3]; mast cells from Mrgprb2 knockout mice,almost no responses
same,intracellular calcium response of mast cells,[3]; wild-type mast cells,Robust increases in intracellular calcium
